Measurements: patent US6583179B2, “Substituted aminoalkylamide derivatives as antagonists of follicle stimulating hormone” (Ortho-McNeil Pharmaceutical, Inc., priority 1999, dated 2003)

target: T1, human FSH receptor (Homo sapiens, UniProt P23945); experiment: hFSHR CHO cAMP assay (rhFSHR-cLUC cells, FSH-stimulated cAMP, radioimmunoassay); format: cell-based; conditions: inhibition of cAMP produced by EC70 dose of FSH (4.85 nM); maximum concentration 50 μM
T1 construct: expressed in transfected cells; host or cells: Chinese Hamster Ovary cells (K-1; ATCC), line rhFSHR-cLUC
T1 sequence (P23945 18-695): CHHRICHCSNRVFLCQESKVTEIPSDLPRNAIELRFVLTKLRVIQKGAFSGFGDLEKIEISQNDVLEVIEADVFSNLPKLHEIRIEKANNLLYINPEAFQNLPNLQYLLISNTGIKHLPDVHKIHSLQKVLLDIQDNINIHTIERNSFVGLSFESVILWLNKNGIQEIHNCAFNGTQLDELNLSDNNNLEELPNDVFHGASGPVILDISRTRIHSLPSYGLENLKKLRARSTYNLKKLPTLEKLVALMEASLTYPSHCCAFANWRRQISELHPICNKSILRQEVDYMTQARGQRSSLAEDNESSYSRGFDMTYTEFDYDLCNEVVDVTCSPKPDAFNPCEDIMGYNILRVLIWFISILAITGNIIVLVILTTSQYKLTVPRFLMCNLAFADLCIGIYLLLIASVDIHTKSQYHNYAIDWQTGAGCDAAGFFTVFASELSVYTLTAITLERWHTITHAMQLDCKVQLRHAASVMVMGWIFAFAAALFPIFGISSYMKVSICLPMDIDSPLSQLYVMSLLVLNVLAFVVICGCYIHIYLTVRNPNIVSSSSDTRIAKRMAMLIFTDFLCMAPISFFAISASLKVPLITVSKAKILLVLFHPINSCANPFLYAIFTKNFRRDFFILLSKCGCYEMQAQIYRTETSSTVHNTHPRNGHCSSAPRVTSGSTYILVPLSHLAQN
Excerpt: Minimum Essential Medium-Alpha (MEM-alpha), fetal bovine serum (FBS), penicillin, streptomycin, geneticin, trypsin-EDTA, Hanks' Balanced Salt Solution (no Calcium chloride, Magnesium chloride, Magnesium sulfate, or phenol red; Ca-Mg free HBSS) were purchased from Gibco BRL (Gaithersburg, Md.). The cells used for the FSH bioassay (rhFSHR-cLUC) were Chinese Hamster Ovary cells (K-1; ATCC) stably transformed with human FSH receptor (pSVK-FSHr) and a cAMP luciferase reporter gene (responsive CGα-180LUC). Follicle Stimulating Hormone (Metrodin; Fertinex) was purchased from Serono, Ltd. (Norwell, Mass.).
The rhFSHR-cLUC cell cultures were maintained in MEM-Alpha supplemented with 10% heat-inactivated FBS (HIFBS), 100 U/ml penicillin, 100 μg/mL streptomycin, and included 0.1 g/L geneticin for stable cell selection.
Forty-eight hours after the cells were plated in sterile 96-well culture plates (Corning, Corning, N.Y.) the spent media was removed and 50 μl assay media (modified growth media with 2% HIFBS) containing 2 mM IBMX (3-isobutyl-1-methyl-xanthine) was added to the cells. Compounds (25 μl) in the appropriate concentration were added followed 5 minutes later by an EC70 dose of FSH (25 μl; 160 ng/ml; 4.85 nM). After 10 minutes @ 22.5° C. (room temperature) the reaction was terminated by addition of 25 μL 0.5 N hydrochloric acid to each well. The amount of cAMP produced was measured by radioimmunoassay in a FlashPlate (DuPont, Boston, Mass.). To each flash plate 60 μL flash plate buffer was added followed by 40 μL acidified cell sample or cAMP standard, followed with the addition of 100 μl ^125l-cAMP trace. The FlashPlates were sealed, incubated overnight @ room temperature, and counted in a Packard TopCount (Packard Instrument Co., Meriden, Conn.). The cAMP radioimmunoassay results were calculated using DPM conversion and log-logit transformation of % binding (Excel program).
Test compounds were solubilized in 30% dimethyl sulfoxide (DMSO) at a concentration of 10 mM before diluting to appropriate concentrations in assay medium. The final DMSO concentration in the treated cells and in the control cells was 0.75%.
For individual experiments, a set of samples were tested including a vehicle control (assay buffer), a reference compound (hFSH) at a range of concentrations designed to elicit a minimal to maximal response, and several concentrations of test compounds together with an EC70 concentration of standard (hFSH challenge). Each compound was performed in duplicates for the primary evaluation and quadruplicates for the dose-ranging experiments. The cAMP radioimmunoassay raw data (pmol) were calculated to provide average pmol cAMP produced/ml and the percent inhibition was calculated as shown below.
% Inh=[1−(Avg.pmoltest compound+standard)/(Avg.pmolstandard)]×100
EC50 values were calculated from an analysis of the concentration-inhibition data using a linear analysis of the data transformed to a log-logit format.

SMILES	EC50 [nM]
COc1ccccc1CCN(CC(=O)N1CCNCC1)S(=O)(=O)c1ccc(-c2ccccc2C)cc1 [Compound 151]	9790
COc1ccccc1CN(CC(=O)N1CCNCC1)S(=O)(=O)c1ccc(-c2ccccc2C)cc1 [Compound 174]	≥ 50000
C[C@H](CN(CC(=O)NCc1ccc(CN)cc1)S(=O)(=O)c1ccc(-c2cccc(F)c2)cc1)c1ccccc1 [Compound 213]	70
COc1ccccc1CCN(CC(=O)NCc1ccc(CN)cc1)S(=O)(=O)c1ccccc1-c1ccccc1C [Compound 218]	1200
COc1ccccc1CCN(CC(=O)NCc1ccc(CN)cc1)S(=O)(=O)c1ccc(-c2cccs2)cc1 [Compound 245]	5630
Cc1ccccc1-c1ccc(S(=O)(=O)N(CC(=O)NCc2ccc(CN)cc2)CC(C)c2ccccc2)cc1 (stereo not drawn) [Compound 311]	50
Cc1ccccc1-c1ccc(S(=O)(=O)N(CC(=O)NCc2ccc(CN)cc2)C2CC2c2ccccc2)cc1 (stereo not drawn) [Compound 320]	2570
COc1ccccc1CCN(CC(=O)NCC1CCCC(CN)C1)S(=O)(=O)c1ccc(-c2ccccc2C)cc1 (stereo not drawn) [Compound 336]	980
COc1ccccc1CCN(CC(=O)NCC1CCCC(CN)C1)S(=O)(=O)c1ccc(-c2ccccc2Cl)cc1 (stereo not drawn) [Compound 337]	310
COc1ccccc1CCN(CC(=O)NCC1CCCC(CN)C1)S(=O)(=O)c1ccc(-c2ccccc2OC)cc1 (stereo not drawn) [Compound 338]	440
COc1ccccc1CCN(CC(=O)NCC1CCCC(CN)C1)S(=O)(=O)c1ccc(-c2ccc(Cl)cc2Cl)cc1 (stereo not drawn) [Compound 339]	1100
COc1ccccc1CN(CC(=O)NCC1CCCC(CN)C1)S(=O)(=O)c1ccc(-c2ccccc2C)cc1 (stereo not drawn) [Compound 340]	650
COc1ccccc1CN(CC(=O)NCC1CCCC(CN)C1)S(=O)(=O)c1ccc(-c2ccccc2Cl)cc1 (stereo not drawn) [Compound 341]	570
COc1ccccc1CN(CC(=O)NCC1CCCC(CN)C1)S(=O)(=O)c1ccc(-c2ccc(Cl)cc2Cl)cc1 (stereo not drawn) [Compound 343]	530
COc1ccccc1CCN(CC(=O)NCc1cccc(CN)c1)S(=O)(=O)c1ccc(-c2ccccc2C)cc1 [Compound 344]	700
COc1ccccc1CCN(CC(=O)NCCCCCCN)S(=O)(=O)c1ccc(-c2ccccc2C)cc1 [Compound 352]	110
COc1ccccc1CCN(CC(=O)NCCCCCCN)S(=O)(=O)c1ccc(-c2ccccc2Cl)cc1 [Compound 353]	140
COc1ccccc1CCN(CC(=O)NCCCCCCN)S(=O)(=O)c1ccc(-c2ccc(Cl)cc2Cl)cc1 [Compound 355]	400
C[C@@H](CN(CC(=O)N1CCC(C2CCNCC2)CC1)S(=O)(=O)c1ccc(-c2ccccc2Cl)cc1)c1ccccc1 [Compound 367]	1020
Cc1ccccc1-c1ccc(S(=O)(=O)N(CC(=O)NCC2CCC(CN)CC2)C[C@H](C)c2ccccc2)cc1 (stereo partly drawn) [Compound 372]	190

SMILES	EC50 [nM]
C[C@@H](CN(CC(=O)NCCCCCN)S(=O)(=O)c1ccc(-c2ccccc2Cl)cc1)c1ccccc1 [Compound 379]	≥ 50000
C[C@@H](CN(CC(=O)NCCCCCN)S(=O)(=O)c1ccc(-c2cccc(F)c2)cc1)c1ccccc1 [Compound 380]	1200
C[C@@H](CN(CC(=O)NCC1CCCC(CN)C1)S(=O)(=O)c1ccc(-c2ccccc2Cl)cc1)c1ccccc1 (stereo partly drawn) [Compound 385]	330
C[C@@H](CN(CC(=O)NCC1CCCC(CN)C1)S(=O)(=O)c1ccc(-c2cccc(F)c2)cc1)c1ccccc1 (stereo partly drawn) [Compound 386]	1170
C[C@H](CN(CC(=O)NCC1CCCC(CN)C1)S(=O)(=O)c1ccc(-c2ccccc2Cl)cc1)c1ccccc1 (stereo partly drawn) [Compound 388]	900
Cc1ccccc1-c1ccc(S(=O)(=O)N(CC(=O)NCc2cccc(CN)c2)C[C@H](C)c2ccccc2)cc1 [Compound 390]	230
C[C@@H](CN(CC(=O)NCCCCCCN)S(=O)(=O)c1ccc(-c2ccccc2Cl)cc1)c1ccccc1 [Compound 397]	50
C[C@H](CN(CC(=O)NCCCCCCN)S(=O)(=O)c1ccc(-c2cccc(F)c2)cc1)c1ccccc1 [Compound 401]	1360
C[C@@H](CN(CC(=O)NCc1ccc(CN(C)C)cc1)S(=O)(=O)c1ccc(-c2ccccc2Cl)cc1)c1ccccc1 [Compound 471]	50000
CCN(CC)Cc1ccc(CNC(=O)CN(CC(C)c2ccccc2)S(=O)(=O)c2ccc(-c3ccccc3Cl)cc2)cc1 (stereo not drawn) [Compound 472]	> 50000
CC(=O)NCc1ccc(CNC(=O)CN(C[C@H](C)c2ccccc2)S(=O)(=O)c2ccc(-c3ccccc3Cl)cc2)cc1 [Compound 473]	> 50000
Cc1ccccc1-c1ccc(S(=O)(=O)N(CC(=O)NCc2ccc(CN(C)C)cc2)C[C@@H](C)c2ccccc2)cc1 [Compound 474]	> 50000
CCN(CC)Cc1ccc(CNC(=O)CN(C[C@@H](C)c2ccccc2)S(=O)(=O)c2ccc(-c3ccccc3C)cc2)cc1 [Compound 475]	9460
CC(=O)NCc1ccc(CNC(=O)CN(CC(C)c2ccccc2)S(=O)(=O)c2ccc(-c3ccccc3C)cc2)cc1 (stereo not drawn) [Compound 476]	≥ 50000
C[C@H](CN(CC(=O)NCc1ccc(CN)cc1)C(=O)c1ccc(-c2ccccc2Cl)cc1)c1ccccc1 [Compound 477]	7700
CC(CN(CC(=O)NC1CCC(CC2CCC(N)CC2)CC1)S(=O)(=O)c1ccc(-c2ccccc2Cl)cc1)c1ccccc1 (stereo not drawn) [Compound 497]	4040
COc1ccc(CCN(CC(=O)NCCCCCCN)S(=O)(=O)c2ccc(-c3ccccc3Cl)cc2)cc1 [Compound 502]	300
C[C@@H](CN(CC(=O)NCc1ccc(CN)cc1)S(=O)(=O)c1ccc(C(C)(C)C)cc1)c1ccccc1 [Compound 555]	1930
C[C@@H](CN(CC(=O)NCc1ccc(CN)cc1)C(=O)Nc1ccc(-c2ccccc2)cc1)c1ccccc1 [Compound 590]	2600
